Measurements: US20070027033A1, “Anti-germination method of tubers or bulbs using eugenol and/or isoeugenol” (priority 2005, published 2007)

System: germination and nascent sprouts of potatoes
Assay: Post-storage application to washed potatoes, in line or by immersion, compared with CIPC and other essential oils
Format: in vivo, potato
Settings: emulsifiable liquid solution applied in line to washed potatoes or by immersion in dilute aqueous solution, after storage, at ambient temperature

C=CCc1ccc(O)c(OC)c1 [eugenol]
prevention of germination and burning of nascent sprouts: more effectively than the CIPC-based formulation or other essential oils
